In patent US20040142875A1, “Metastin derivatives and their use” (priority 2003, published 2004):
“Also recorded” adds a separate entry of the source. The star is where a group is joined. X1 = 4‑(N,N-Bis(2-pyridylmethyl)aminomethyl)benzoyl, O=C(c1ccc(CN(Cc2ccccn2)Cc2ccccn2)cc1)*; 4‑(guanidinomethyl)benzoyl = N=C(N)NCc1ccc(C(=O)*)cc1

Experiments:
Panc-1 cells [1] = assay: Cell proliferation assay, Panc-1; type: cell-based; conditions: for proliferation activity (cell growth): Panc-1 with KiSS-1 short derivatives, FIG. 7A
Description: (§1) Pancreatic cancer cell lines AsPC-1, BxPC-3, Capan-2, CFPAC-1, Panc-1 and Suit-2 were purchased from the American Type Culture Collection. Cells were cultured as monolayers in the appropriate medium supplemented with 10% fetal bovine serum, 100 units/ml penicillin, and 100 μg/ml streptomycin at 37° C., in a humid atmosphere of 5% CO2/95% air. As for AsPC-1 and Panc-1, upon reaching 80% confluence, the medium was removed, the cells were washed in phosphate-buffered saline (PBS) and treated with increasing doses of metastin (Takeda Chemical Industries, Osaka, Japan) with 10% fetal bovine serum and protein was isolated 15 minutes later as described below.
(§2) For assaying proliferation, AsPC-1 and Panc-1 cells (1×10^4cells/3 cm diameter dish) were seeded in 10% FBS medium and incubated with increasing doses of metastin for 48 and 96 hours. Cells were trypsinized and cell numbers were counted using hematocytometer.

Panc-1 cells [2] = assay: Cell migration assay, Panc-1; type: cell-based; conditions: for migration index: Panc-1 with KiSS-1 short derivatives, FIG. 7B
Description: (§3) A polyvinylpyrrolidone-free polycarbonate framed filter (8 μm pores) was set in a microchemotasis chamber (Corning Coster Corp., Cambridge, Mass.). Cells (2×10^6 cells in 200 μl RPMI1640 for AsPC-1 and in 200 μl DMEM for Panc-1) and peptide were added to the upper chamber and incubated at 37° C. for 12 hours to allow migration to the lower chamber, which contained 10% FBS/RPMI1640 for AsPC-1 or 5% FBS/DMEM for Panc-1 as a chemoattractant. After removing nonmigrating cells with a cotton swab from the upper surface of the membrane, cells on the lower surface were fixed, stained with Diff-Quick (International Reagent, Kobe, Japan). For quantification, cells were counted under a microscope in five predetermined fields at X200.

[3] = test system: ERK1/2, p38 and JNK1/2 in Panc-1 cells; assay: MAPK activation by Western blot, Panc-1; type: cell-based; conditions: 15 minutes, immunoblot, FIG. 5, FIG. 7C
Description: as §1
Cells were collected into microtubes with a cell scraper and lysed for 60 min in phosphorylation-inhibitory RIPA buffer containing 50 mM HEPES (pH 7.0), 250 mM NaCl, 0.1% Nonidet P-40, 1 mM phenylmethylsulfonyl fluoride (PMSF) and 20 μg /ml gabexate mesilate, then the lysate was sonicated for 10 sec. Total extracts were cleaned by centrifugation at 12,000 rpm for 10 min at 4° C., the supernatants were collected. Protein concentrations were measured using a protein assay kit (Tonein-TP, Otsuka Pharmaceutical, Tokyo, Japan). The lysates were resuspended in one volume of the gel loading buffer which contained 50 mM Tris-HCl (pH 6.7), 4% SDS, 0.02% bromophenol blue, 20% glycerol and 4% 2-mercaptoethanol, and then boiled at 95° C. for 90 sec. The extracted protein was subjected to Western blotting, as previously described (Wada, M. et al., Pancreas. 15: 176-82., 1997). In brief, 30 μg aliquots of protein was size-fractionated to a single dimension by SDS-PAGE (12% gels) and transblotted to a 0.45 μm polyvinylidene difluoride membrane (Bio-Rad, Richmond, Calif.) in a semidry electroblot apparatus (Bio-Rad, Richmond, Calif.). The blots were, then washed three times with TBST buffer and incubated for two hours at RT in the first antibody solution containing anti-phosphoERK antibody (#pTEpY, Promega, Madison, Wis.), anti-phosphop38 MAPK (#pTGpY, Promega, Madison, Wis.) or anti-phosphoJNK(#pTPpY, Promega, Madison, Wis.), 0.2% I-block (Promega, Madison, Wis.). After three washings in TBST buffer, the blots were incubated for one hour at RT with horseradish peroxidase conjugated anti-rabbit IgG at a 1:2000 dilution with TBST buffer. After three washings in TBST buffer, membranes were treated with enhanced chemiluminescence reagents (Amersham Life Sciences, Amersham, UK) according to the manufacturer's protocol. Membranes were exposed to X-ray film for 5-60 seconds. Protein expression was measured by ATTO densito-analyzer system AE-6920M (ATTO Corporation, Tokyo Japan) and the quantity was expressed numerically. The quantity of the target protein was divided by that of beta actin and relative intensities were obtained.
To evaluate the signaling pathways activated by endogenous metastin receptors in pancreatic cancer, activation of MAPK was examined by treatment with metastin. Cells in exponential stage were incubated in serum containing medium and then transferred to the 1% BSA medium with metastin, as in the case of migration or invasion assay. After incubation with increasing dose of metastin (0 μM, 0.1 μM, 1 μM, 10 μM) for 15 minutes, activation of ERK1/2, p38 and JNK1/2 were measured by immunoblot (FIG. 5A).

AsPC-1 cells [4] = assay: Cell migration assay, AsPC-1; type: cell-based; conditions: metastin 0 μM, 100 μM, 1 μM, 10 μM for 12 hours, FIG. 4A
Description: as §3

[5] = test system: ERK1/2, p38 and JNK1/2 in AsPC-1 cells; assay: MAPK activation by Western blot, AsPC-1; type: cell-based; conditions: 0-10 μM for 15 minutes, immunoblot
Description: as §1
Cells were collected into microtubes with a cell scraper and lysed for 60 min in phosphorylation-inhibitory RIPA buffer containing 50 mM HEPES (pH 7.0), 250 mM NaCl, 0.1% Nonidet P-40, 1 mM phenylmethylsulfonyl fluoride (PMSF) and 20 μg /ml gabexate mesilate, then the lysate was sonicated for 10 sec. […] Protein concentrations were measured using a protein assay kit (Tonein-TP, Otsuka Pharmaceutical, Tokyo, Japan). […] Protein expression was measured by ATTO densito-analyzer system AE-6920M (ATTO Corporation, Tokyo Japan) and the quantity was expressed numerically. The quantity of the target protein was divided by that of beta actin and relative intensities were obtained. […]

AsPC-1 cells [6] = assay: Matrigel invasion assay, AsPC-1; type: cell-based; conditions: 10 μM metastin, 12 hours, FIG. 4B
Description: (§4) Cells and peptide (2×10^6 cells in 200 μl RPMI1640 for AsPC-1 and in 200 μl DMEM for Panc-1) were added to a Matrigel-coated Transwell(8 μm pores,. Becton Dickinson Labware, Bedford, Mass.) and incubated at 37° C. for 12 hours versus a lower chamber containing 10% FBS/RPMI1640 for AsPC-1 or 5% FBS/DMEM for Panc-1. After removing the Matrigel and cells from the upper surface of the membrane, cells on the lower surface were fixed, stained with Diff-Quick and quantified the number as well. Invasion index was defined as the number of invasion cells per that of migrating cells.

[7] = test system: hOT7T175 transfected B16-BL6 melanomas; conditions: hOT7T175 transfected B16-BL6 melanomas in vivo; Ohtaki et al.; cited from earlier work
Panc-1 cells [8] = assay: Matrigel invasion assay, Panc-1; type: cell-based; conditions: 10 μM metastin, 12 hours, FIG. 4B
Description: as §4

[9] = test system: hOT7T175 transfected Chinese hamster ovary (CHO) cells; conditions: hOT7T175 transfected CHO cells in vitro; Hori et al., Kotani et al.; cited from earlier work
AsPC-1 cells [10] = assay: Cell proliferation assay, AsPC-1; type: cell-based; conditions: metastin 0, 100 μM, 1 μM and 10 μM for 48 hours and 96 hours, FIG. 3
Description: as §1, §2

For “4-(guanidinomethyl) benzoyl-Phe-Gly-Leu-Arg-Trp-NH2 ({4‑(guanidinomethyl)benzoyl}-FGLRW-NH2) [FM053a]”, the “proliferation activity (cell growth)” value (Panc-1 cells [1]) was “cell growth was not affected”, the migration index (Panc-1 cells [2]) was “reduced the migration index; also recorded: less suppressive than FM052a” and the “activation of ERK1 (pERK1)” value [3] was “less activation of pERK1 than FM052a”. The “activation of JNK1/2 (pJNKs)” value [3] was “not augmented” and the “activation of p38 (pp38)” value [3] was “slightly activated”.
For “4-[N,N-Bis(2 -pyridylmethyl)aminomethyl]benzoyl-Phe-Gly-Leu-Arg-Trp-NH2 (X1-FGLRW-NH2) [FM052a]”, the “proliferation activity (cell growth)” value (Panc-1 cells [1]) was “cell growth was not affected”, the migration index (Panc-1 cells [2]) was “reduced the migration index; also recorded: nearly same activity with metastin” and the “activation of ERK1 (pERK1)” value [3] was “ERK1 activation was observed”. The “activation of JNK1/2 (pJNKs)” value [3] was “not augmented” and the “activation of p38 (pp38)” value [3] was “slightly activated”.
In the case of “metastin: 54 amino acid peptide with C-terminal amidation processed from KiSS-1; ligand of receptor hOT7T175 (AXOR12)”, the cell growth (Panc-1 cells [1]; Panc-1, metastin 0, 100 μM, 1 μM and 10 μM for 48 hours and 96 hours, FIG. 3) is reported as “Neither AsPC-1 nor Panc-1 showed growth retardation”, the “reduction of migratory activity” value (Panc-1 cells [2]; Panc-1, metastin 0 μM, 100 μM, 1 μM, 10 μM for 12 hours, p<0.01, FIG. 4A) is reported as “up to 40%” and the migratory activity (AsPC-1 cells [4]) is reported as “little influenced”. The “activation of ERK1 (pERK1)” value [5] was “pERK1 was augmented”, the “activation of JNK1/2 (pJNKs)” value [5] was “no reduction or increase of pJNKs” and the “invasion activity (invasion index)” value (AsPC-1 cells [6]) was “Invasion activity was not influenced”. For the same substance, the pulmonary metastasis [7] was “attenuates pulmonary metastasis”, the “invasion activity (invasion index)” value (Panc-1 cells [8]) was “Invasion activity was not influenced” and the chemotaxis and invasion [9] was “inhibit chemotaxis and invasion”. For the same substance, the cell growth (AsPC-1 cells [10]) was “Neither AsPC-1 nor Panc-1 showed growth retardation”, the “activation of ERK1 (pERK1)” value [3] was “pERK1 was augmented” and the “activation of JNK1/2 (pJNKs)” value [3] was “no reduction or increase of pJNKs”. For the same substance, the “activation of p38 (pp38)” value [3] was “Slight activation of p38”.
